According to ChEMBL document CHEMBL1201862, “PubChem BioAssay data set” (2004):
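48-hour exposure; five concentrations; linearly interpolated endpoints. At the GI50, growth is halved.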 Active and inactive are the calls of the source. No stated cut-off is given here; in the data, active = GI50 up to about 1.1 µM and inactive = higher.

Tests used:
Experiment in all cases: inhibition of tumour cell growth, NCI panel, 48 h
786-0 = system: 786-0
A498 = system: A498
A549 = system: A549
ACHN = system: ACHN
BT-549 = system: BT-549
CAKI-1 = system: CAKI-1
COLO 205 = system: COLO 205
DU-145 = system: DU-145
EKVX = system: EKVX
HCC 2998 = system: HCC 2998
HCT-116 = system: HCT-116
HCT-15 = system: HCT-15
HOP-62 = system: HOP-62
HOP-92 = system: HOP-92
HT-29 = system: HT-29
Hs-578T = system: Hs-578T
KM12 = system: KM12
M14 = system: M14
MDA-MB-231 = system: MDA-MB-231
MDA-MB-435 = system: MDA-MB-435
MOLT-4 = system: MOLT-4
Malme-3M = system: Malme-3M
NCI-H226 = system: NCI-H226
NCI-H23 = system: NCI-H23
NCI-H460 = system: NCI-H460
NCI-H522 = system: NCI-H522
NCI/ADR-RES = system: NCI/ADR-RES
OVCAR-3 = system: OVCAR-3
OVCAR-4 = system: OVCAR-4
OVCAR-5 = system: OVCAR-5
PC-3 = system: PC-3
RXF 393 = system: RXF 393
SF-268 = system: SF-268
SF-295 = system: SF-295
SF-539 = system: SF-539
SK-MEL-2 = system: SK-MEL-2
SK-MEL-5 = system: SK-MEL-5
SK-OV-3 = system: SK-OV-3
SNB-19 = system: SNB-19
SNB-75 = system: SNB-75
SR = system: SR
SW-620 = system: SW-620
T47D = system: T47D
TK-10 = system: TK-10
U-251 = system: U-251
UACC-257 = system: UACC-257
UACC-62 = system: UACC-62
UO-31 = system: UO-31
CCRF-CEM = system: CCRF-CEM
HL-60 = system: HL-60
IGROV-1 = system: IGROV-1
K562 = system: K562
LOX IMVI = system: LOX IMVI
MCF7 = system: MCF7
OVCAR-8 = system: OVCAR-8
RPMI-8226 = system: RPMI-8226
SK-MEL-28 = system: SK-MEL-28
SN12C = system: SN12C

Structure (SMILES): Cc1c(/C=N\NC(=S)N(C)CCN(C)C(=S)N/N=C\c2c(C)n(C)n(-c3ccccc3)c2=O)c(=O)n(-c2ccccc2)n1C
- GI50 (786-0): > 100 µM (inactive)
- GI50 (A498): > 100 µM (inactive)
- GI50 (A549): > 100 µM (inactive)
- GI50 (ACHN): > 100 µM (inactive)
- GI50 (BT-549): > 100 µM (inactive)
- GI50 (CAKI-1): > 100 µM (inactive)
- GI50 (COLO 205): > 100 µM (inactive)
- GI50 (DU-145): > 100 µM (inactive)
- GI50 (EKVX): > 100 µM (inactive)
- GI50 (HCC 2998): > 100 µM (inactive)
- GI50 (HCT-116): > 100 µM (inactive)
- GI50 (HCT-15): > 100 µM
- GI50 (HOP-62): > 100 µM (inactive)
- GI50 (HOP-92): > 100 µM (inactive)
- GI50 (HT-29): > 100 µM (inactive)
- GI50 (Hs-578T): > 100 µM (inactive)
- GI50 (KM12): > 100 µM (inactive)
- GI50 (M14): > 100 µM (inactive)
- GI50 (MDA-MB-231): > 100 µM (inactive)
- GI50 (MDA-MB-435): > 100 µM (inactive)
- GI50 (MOLT-4): > 100 µM (inactive)
- GI50 (Malme-3M): 55.7 µM (inactive)
- GI50 (NCI-H226): > 100 µM (inactive)
- GI50 (NCI-H23): > 100 µM (inactive)
- GI50 (NCI-H460): > 100 µM (inactive)
- GI50 (NCI-H522): 41.7 µM (inactive)
- GI50 (NCI/ADR-RES): > 100 µM (inactive)
- GI50 (OVCAR-3): > 100 µM (inactive)
- GI50 (OVCAR-4): > 100 µM (inactive)
- GI50 (OVCAR-5): > 100 µM (inactive)
- GI50 (PC-3): > 100 µM (inactive)
- GI50 (RXF 393): > 100 µM (inactive)
- GI50 (SF-268): > 100 µM (inactive)
- GI50 (SF-295): > 100 µM (inactive)
- GI50 (SF-539): > 100 µM (inactive)
- GI50 (SK-MEL-2): > 100 µM (inactive)
- GI50 (SK-MEL-5): > 100 µM (inactive)
- GI50 (SK-OV-3): > 100 µM (inactive)
- GI50 (SNB-19): > 100 µM (inactive)
- GI50 (SNB-75): 42.6 µM (inactive)
- GI50 (SR): 35.3 µM (inactive)
- GI50 (SW-620): > 100 µM (inactive)
- GI50 (T47D): > 100 µM (inactive)
- GI50 (TK-10): > 100 µM (inactive)
- GI50 (U-251): > 100 µM (inactive)
- GI50 (UACC-257): > 100 µM (inactive)
- GI50 (UACC-62): > 100 µM (inactive)
- GI50 (UO-31): > 100 µM (inactive)

Structure (SMILES): O=C1C(Cl)=C(N2CCN(CCOCCO)CC2)C(=O)c2ncccc21
- GI50 (786-0): > 10 µM (inactive)
- GI50 (A498): > 10 µM (inactive)
- GI50 (A549): > 10 µM (inactive)
- GI50 (ACHN): > 10 µM (inactive)
- GI50 (BT-549): > 10 µM (inactive)
- GI50 (CAKI-1): > 10 µM (inactive)
- GI50 (CCRF-CEM): 0.001 µM (active)
- GI50 (COLO 205): > 10 µM (inactive)
- GI50 (DU-145): > 10 µM (inactive)
- GI50 (EKVX): > 10 µM (inactive)
- GI50 (HCC 2998): > 10 µM (inactive)
- GI50 (HCT-116): 5.07 µM (inactive)
- GI50 (HCT-15): > 10 µM
- GI50 (HL-60): 3.35 µM (inactive)
- GI50 (HOP-62): > 10 µM (inactive)
- GI50 (HOP-92): 1.63 µM (inactive)
- GI50 (HT-29): > 10 µM (inactive)
- GI50 (Hs-578T): > 10 µM (inactive)
- GI50 (IGROV-1): > 10 µM (inactive)
- GI50 (K562): > 10 µM (inactive)
- GI50 (KM12): > 10 µM (inactive)
- GI50 (LOX IMVI): > 10 µM (inactive)
- GI50 (M14): > 10 µM (inactive)
- GI50 (MCF7): > 10 µM (inactive)
- GI50 (MDA-MB-231): > 10 µM (inactive)
- GI50 (MDA-MB-435): 2.65 µM (inactive)
- GI50 (MOLT-4): > 10 µM (inactive)
- GI50 (Malme-3M): 7.85 µM (inactive)
- GI50 (NCI-H226): > 10 µM (inactive)
- GI50 (NCI-H23): > 10 µM (inactive)
- GI50 (NCI-H460): > 10 µM (inactive)
- GI50 (NCI-H522): 2.56 µM (inactive)
- GI50 (NCI/ADR-RES): > 10 µM (inactive)
- GI50 (OVCAR-3): > 10 µM (inactive)
- GI50 (OVCAR-4): > 10 µM (inactive)
- GI50 (OVCAR-5): > 10 µM (inactive)
- GI50 (OVCAR-8): > 10 µM (inactive)
- GI50 (PC-3): > 10 µM (inactive)
- GI50 (RPMI-8226): 7.1 µM (inactive)
- GI50 (RXF 393): 3.69 µM (inactive)
- GI50 (SF-268): > 10 µM (inactive)
- GI50 (SF-295): > 10 µM (inactive)
- GI50 (SF-539): > 10 µM (inactive)
- GI50 (SK-MEL-28): > 10 µM (inactive)
- GI50 (SK-MEL-2): > 10 µM (inactive)
- GI50 (SK-MEL-5): > 10 µM (inactive)
- GI50 (SK-OV-3): > 10 µM (inactive)
- GI50 (SN12C): > 10 µM (inactive)
- GI50 (SNB-19): > 10 µM (inactive)
- GI50 (SNB-75): > 10 µM (inactive)
- GI50 (SR): > 10 µM (inactive)
- GI50 (SW-620): > 10 µM (inactive)
- GI50 (T47D): 2.23 µM (inactive)
- GI50 (TK-10): > 10 µM (inactive)
- GI50 (U-251): > 10 µM (inactive)
- GI50 (UACC-257): > 10 µM (inactive)
- GI50 (UACC-62): > 10 µM (inactive)
